# Test results reported in ChEMBL document CHEMBL4321821, “Opioids as Substrates and Inhibitors of the Genetically Highly Variable Organic Cation Transporter OCT1” (J Med Chem, 2019).
# Tested on: not listed separately
# Test: Unbound Cmax in human at 80 mg, po dosed as immediate release formulation
# Format: ADME, organism-based
# Conditions: in vivo
row,SMILES,fCmax [µM]
1,CC[C@@H](c1cccc(O)c1)[C@@H](C)CN(C)C [TAPENTADOL],0.23

# Tested on: not listed separately
# Test: Cmax in human at 34 mg, iv
# Format: ADME
# Parameters: dose 34 mg, route intravenous
# Conditions: in vivo
row,SMILES,Cmax [nM]
1,CC[C@@H](c1cccc(O)c1)[C@@H](C)CN(C)C [TAPENTADOL],1100

# Tested on: not listed separately
# Test: Cmax in human at 80 mg, po dosed as immediate release formulation
# Format: ADME, organism-based
# Parameters: dose 80 mg, route oral
# Conditions: in vivo
row,SMILES,Cmax [nM]
1,CC[C@@H](c1cccc(O)c1)[C@@H](C)CN(C)C [TAPENTADOL],290

# Tested on: not listed separately
# Test: Ratio of unbound Cmax in human at 34 mg, iv to inhibition of human OCT1 expressed in HEK293 cells assessed as reduction in ASP+ substrate uptake by microplate reader based analysis
# Format: ADME, organism-based
# Conditions: in vivo
row,SMILES,Ratio
1,CC[C@@H](c1cccc(O)c1)[C@@H](C)CN(C)C [TAPENTADOL],0.04

# Tested on: not listed separately
# Test: Ratio of unbound Cmax in human at 86 mg, po dosed as prolonged release formulation to inhibition of human OCT1 expressed in HEK293 cells assessed as reduction in ASP+ substrate uptake by microplate reader based analysis
# Format: ADME, organism-based
# Conditions: in vivo
row,SMILES,Ratio
1,CC[C@@H](c1cccc(O)c1)[C@@H](C)CN(C)C [TAPENTADOL],0.004

# Target: T1, OCT1 (SLC22A1) (Homo sapiens, UniProt O15245)
# T1 sequence (O15245 whole entry): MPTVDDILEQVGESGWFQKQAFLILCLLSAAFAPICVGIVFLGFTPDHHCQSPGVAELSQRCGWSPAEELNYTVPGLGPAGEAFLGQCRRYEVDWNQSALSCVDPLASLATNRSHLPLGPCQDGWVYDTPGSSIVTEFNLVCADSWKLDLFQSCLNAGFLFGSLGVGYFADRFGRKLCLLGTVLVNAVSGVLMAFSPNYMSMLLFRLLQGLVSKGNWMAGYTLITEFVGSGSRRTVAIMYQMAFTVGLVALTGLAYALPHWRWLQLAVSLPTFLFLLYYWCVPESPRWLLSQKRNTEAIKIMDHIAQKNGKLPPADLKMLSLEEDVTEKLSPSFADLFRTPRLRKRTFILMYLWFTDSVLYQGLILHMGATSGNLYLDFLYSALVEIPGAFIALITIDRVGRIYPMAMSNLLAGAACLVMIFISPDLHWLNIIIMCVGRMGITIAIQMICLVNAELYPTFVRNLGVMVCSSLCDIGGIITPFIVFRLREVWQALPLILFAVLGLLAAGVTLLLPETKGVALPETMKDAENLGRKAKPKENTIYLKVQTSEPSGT
# Test: Substrate activity at human OCT1 expressed in HEK293 cells assessed as increase in compound uptake at 0.5 uM incubated for 2 mins by LC-MS/MS analysis relative to control empty vector transfected cells
# Format: cell-based
# Conditions: HEK293 cells that express human OCT1, read-out: FC
row,SMILES,"uptake ratio at 2 min, 0.5 µM"
1,COc1ccc2c3c1O[C@H]1C(=O)CC[C@H]4[C@@H](C2)N(C)CC[C@]314 [HYDROCODONE],1.2
2,CN1CC[C@]23CCCC[C@H]2[C@H]1Cc1ccc(O)cc13 [LEVORPHANOL],1.3
3,COc1ccc2c(c1)[C@@]13CCCC[C@H]1[C@@H](C2)NCC3,2
4,CCOC(=O)C1(c2ccccc2)CCN(C)CC1 [MEPERIDINE],1.2
5,Oc1ccc2c(c1)[C@@]13CCCC[C@H]1[C@@H](C2)NCC3 [NORLEVORPHANOL],17.4
6,CN1CC[C@]23c4c5ccc(O)c4O[C@H]2C(=O)CC[C@@]3(O)[C@H]1C5 [OXYMORPHONE],0.9
7,CCC1(c2cccc(O)c2)CCCCN(C)C1 (stereo not given) [MEPTAZINOL],3.2
8,CC[C@@H](c1cccc(O)c1)[C@@H](C)CN(C)C [TAPENTADOL],1.5

# Tested on: not listed separately
# Test: in vitro
# Conditions: PAMPA
# Description: Passive membrane permeability by LC-MS/MS analysis based PAMPA
row,SMILES,Papp [×10⁻⁶ cm/s]
1,COc1ccc2c3c1O[C@H]1C(=O)CC[C@H]4[C@@H](C2)N(C)CC[C@]314 [HYDROCODONE],9.1
2,CN1CC[C@]23CCCC[C@H]2[C@H]1Cc1ccc(O)cc13 [LEVORPHANOL],9.2
3,COc1ccc2c(c1)[C@@]13CCCC[C@H]1[C@@H](C2)NCC3,17.2
4,CCOC(=O)C1(c2ccccc2)CCN(C)CC1 [MEPERIDINE],40.2
5,Oc1ccc2c(c1)[C@@]13CCCC[C@H]1[C@@H](C2)NCC3 [NORLEVORPHANOL],0.7
6,CN1CC[C@]23c4c5ccc(O)c4O[C@H]2C(=O)CC[C@@]3(O)[C@H]1C5 [OXYMORPHONE],3.2
7,CCC1(c2cccc(O)c2)CCCCN(C)C1 (stereo not given) [MEPTAZINOL],14.3
8,CC[C@@H](c1cccc(O)c1)[C@@H](C)CN(C)C [TAPENTADOL],13.6

# Tested on: not listed separately
# Test: Unbound maximal portal vein concentration of in human at 86 mg, po dosed as prolonged release formulation
# Format: ADME, organism-based
# Conditions: in vivo
row,SMILES,fCmax [µM]
1,CC[C@@H](c1cccc(O)c1)[C@@H](C)CN(C)C [TAPENTADOL],18.43

# Tested on: not listed separately
# Test: Ratio of unbound maximal portal vein concentration in human at 80 mg, po dosed as immediate release formulation to inhibition of human OCT1 expressed in HEK293 cells assessed as reduction in ASP+ substrate uptake by microplate reader based analysis
# Format: ADME, organism-based
# Conditions: in vivo
row,SMILES,Ratio
1,CC[C@@H](c1cccc(O)c1)[C@@H](C)CN(C)C [TAPENTADOL],0.849

# Target: T1, OCT1 (SLC22A1)
# Test: Substrate activity at human OCT1 expressed in HEK293 cells assessed as increase in compound uptake at 0.05 uM incubated for 2 mins by LC-MS/MS analysis relative to control empty vector transfected cells
# Format: cell-based
# Conditions: HEK293 cells that express human OCT1, read-out: FC
row,SMILES,"uptake ratio at 2 min, 0.05 µM"
1,COc1ccc2c3c1O[C@H]1C(=O)CC[C@H]4[C@@H](C2)N(C)CC[C@]314 [HYDROCODONE],0.9
2,CN1CC[C@]23CCCC[C@H]2[C@H]1Cc1ccc(O)cc13 [LEVORPHANOL],1.5
3,COc1ccc2c(c1)[C@@]13CCCC[C@H]1[C@@H](C2)NCC3,2.5
4,CCOC(=O)C1(c2ccccc2)CCN(C)CC1 [MEPERIDINE],1.1
5,Oc1ccc2c(c1)[C@@]13CCCC[C@H]1[C@@H](C2)NCC3 [NORLEVORPHANOL],14
6,CN1CC[C@]23c4c5ccc(O)c4O[C@H]2C(=O)CC[C@@]3(O)[C@H]1C5 [OXYMORPHONE],2.4
7,CCC1(c2cccc(O)c2)CCCCN(C)C1 (stereo not given) [MEPTAZINOL],0.8
8,CC[C@@H](c1cccc(O)c1)[C@@H](C)CN(C)C [TAPENTADOL],0.9

# Tested on: not listed separately
# Test: Ratio of unbound maximal portal vein concentration in human at 86 mg, po dosed as prolonged release formulation to inhibition of human OCT1 expressed in HEK293 cells assessed as reduction in ASP+ substrate uptake by microplate reader based analysis
# Format: ADME, organism-based
# Conditions: in vivo
row,SMILES,Ratio
1,CC[C@@H](c1cccc(O)c1)[C@@H](C)CN(C)C [TAPENTADOL],0.842

# Tested on: not listed separately
# Test: Ratio of unbound Cmax in human at 80 mg, po dosed as immediate release formulation to inhibition of human OCT1 expressed in HEK293 cells assessed as reduction in ASP+ substrate uptake by microplate reader based analysis
# Format: ADME, organism-based
# Conditions: in vivo
row,SMILES,Ratio
1,CC[C@@H](c1cccc(O)c1)[C@@H](C)CN(C)C [TAPENTADOL],0.011

# Target: T1, OCT1 (SLC22A1)
# Test: Substrate activity at human OCT1 expressed in HEK293 cells assessed as increase in compound uptake at 0.1 uM incubated for 2 mins by LC-MS/MS analysis relative to control empty vector transfected cells
# Format: cell-based
# Conditions: HEK293 cells that express human OCT1, read-out: FC
row,SMILES,"uptake ratio at 2 min, 0.1 µM"
1,COc1ccc2c3c1O[C@H]1C(=O)CC[C@H]4[C@@H](C2)N(C)CC[C@]314 [HYDROCODONE],1.6
2,CN1CC[C@]23CCCC[C@H]2[C@H]1Cc1ccc(O)cc13 [LEVORPHANOL],1.7
3,COc1ccc2c(c1)[C@@]13CCCC[C@H]1[C@@H](C2)NCC3,2.2
4,CCOC(=O)C1(c2ccccc2)CCN(C)CC1 [MEPERIDINE],1.2
5,Oc1ccc2c(c1)[C@@]13CCCC[C@H]1[C@@H](C2)NCC3 [NORLEVORPHANOL],14.9
6,CN1CC[C@]23c4c5ccc(O)c4O[C@H]2C(=O)CC[C@@]3(O)[C@H]1C5 [OXYMORPHONE],1.3
7,CCC1(c2cccc(O)c2)CCCCN(C)C1 (stereo not given) [MEPTAZINOL],2.2
8,CC[C@@H](c1cccc(O)c1)[C@@H](C)CN(C)C [TAPENTADOL],1.6

# Target: T2, Solute carrier family 22 member 1 (Homo sapiens, UniProt O15245)
# T2 sequence (O15245 whole entry): T1 sequence (O15245 whole entry)
# Test: Inhibition of human OCT1 expressed in HEK293 cells assessed as reduction in ASP+ substrate uptake by microplate reader based analysis
# Format: cell-based
# Conditions: not given
row,SMILES,IC50 [µM]
1,COc1ccc2c3c1O[C@H]1C(=O)CC[C@H]4[C@@H](C2)N(C)CC[C@]314 [HYDROCODONE],537
2,CN1CC[C@]23CCCC[C@H]2[C@H]1Cc1ccc(O)cc13 [LEVORPHANOL],8 to 8.48
3,COc1ccc2c(c1)[C@@]13CCCC[C@H]1[C@@H](C2)NCC3,10 to 10.3
4,CCOC(=O)C1(c2ccccc2)CCN(C)CC1 [MEPERIDINE],22.3
5,Oc1ccc2c(c1)[C@@]13CCCC[C@H]1[C@@H](C2)NCC3 [NORLEVORPHANOL],24.9 to 25
6,CN1CC[C@]23c4c5ccc(O)c4O[C@H]2C(=O)CC[C@@]3(O)[C@H]1C5 [OXYMORPHONE],250
7,CCC1(c2cccc(O)c2)CCCCN(C)C1 (stereo not given) [MEPTAZINOL],19
8,CC[C@@H](c1cccc(O)c1)[C@@H](C)CN(C)C [TAPENTADOL],21.9

# Tested on: not listed separately
# Test: Unbound maximal portal vein concentration of in human at 80 mg, po dosed as immediate release formulation
# Format: ADME, organism-based
# Conditions: in vivo
row,SMILES,fCmax [µM]
1,CC[C@@H](c1cccc(O)c1)[C@@H](C)CN(C)C [TAPENTADOL],18.58

# Tested on: not listed separately
# Test: Unbound Cmax in human at 86 mg, po dosed as prolonged release formulation
# Format: ADME, organism-based
# Conditions: in vivo
row,SMILES,fCmax [µM]
1,CC[C@@H](c1cccc(O)c1)[C@@H](C)CN(C)C [TAPENTADOL],0.08

# Tested on: not listed separately
# Test: Ratio of unbound maximal portal vein concentration in human at 34 mg, iv to inhibition of human OCT1 expressed in HEK293 cells assessed as reduction in ASP+ substrate uptake by microplate reader based analysis
# Format: ADME, organism-based
# Conditions: in vivo
row,SMILES,Ratio
1,CC[C@@H](c1cccc(O)c1)[C@@H](C)CN(C)C [TAPENTADOL],0.371

# Tested on: not listed separately
# Test: Unbound Cmax in human at 34 mg, iv
# Format: ADME
# Conditions: in vivo
row,SMILES,fCmax [µM]
1,CC[C@@H](c1cccc(O)c1)[C@@H](C)CN(C)C [TAPENTADOL],0.88

# Tested on: not listed separately
# Test: Unbound maximal portal vein concentration of in human at 34 mg, iv
# Format: ADME, tissue-based
# Conditions: in vivo
row,SMILES,fCmax [µM]
1,CC[C@@H](c1cccc(O)c1)[C@@H](C)CN(C)C [TAPENTADOL],8.13

# Tested on: not listed separately
# Test: Cmax in human at 86 mg, po dosed as prolonged release formulation
# Format: ADME, organism-based
# Parameters: dose 86 mg, route oral
# Conditions: in vivo
row,SMILES,Cmax [nM]
1,CC[C@@H](c1cccc(O)c1)[C@@H](C)CN(C)C [TAPENTADOL],100
